pIC50: −log10 of the molar value. Values belong to the molecule of their own block, whether it stands above or below them.
Test system: 521955-158-R2-J5-PDC complex spheroids, viability
Assay: Anticancer human tumor 521955-158-R2-J5-PDC patient-derived pancreatic carcinoma cell line growth inhibition [RAS]
Details: for pIC50: curve of first compound; for viability, T/C: stronger effect = lower value
Method in brief: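 Multi-cell-type spheroids: tumor cells plus HUVEC endothelial cells and mesenchymal stem cells. RAS-pathway inhibitors were combined with targeted agents, each dosed in half-log steps down from clinical Cmax, or from 10 microM when Cmax was unknown.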
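Further: compound exposure lasted seven days before the viability read.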
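Wherever viability, T/C is given: spheroids also contain HUVEC endothelial cells and mesenchymal stem cells as stroma.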

pIC50 (second compound 0.000949 µM): > 9.02
pIC50 (second compound 0.003 µM): > 9.02
pIC50 (second compound 0.00949 µM): > 9.02
pIC50 (second compound 0.03 µM): > 9.02
pIC50 (second compound 0.0949 µM): > 9.02
pIC50 (second compound 0.3 µM): > 9.02
Compound: CC1(C)CCC(Nc2ncc(C(F)(F)F)c(-c3c[nH]c4c(P(C)(C)=O)c(C#N)ccc34)n2)CN1 (stereo not given) + CCn1c(-c2cc(N3CCN(C)CC3)cnc2C(C)OC)c2c3cc(ccc31)-c1csc(n1)CC(NC(=O)C1CC1C)C(=O)N1CCCC(N1)C(=O)OCC(C)(C)C2
viability, T/C (second compound 0.000949 µM, first compound 0.000949 µM): 33.7%
viability, T/C (second compound 0.000949 µM, first compound 0.003 µM): 32%
viability, T/C (second compound 0.000949 µM, first compound 0.00949 µM): 33.4%
viability, T/C (second compound 0.000949 µM, first compound 0.03 µM): 30.9%
viability, T/C (second compound 0.000949 µM, first compound 0.0949 µM): 39.5%
viability, T/C (second compound 0.000949 µM, first compound 0.3 µM): 40.5%
viability, T/C (second compound 0.003 µM, first compound 0.000949 µM): 34.6%
viability, T/C (second compound 0.003 µM, first compound 0.003 µM): 26.5%
viability, T/C (second compound 0.003 µM, first compound 0.00949 µM): 18%
viability, T/C (second compound 0.003 µM, first compound 0.03 µM): 23.1%
viability, T/C (second compound 0.003 µM, first compound 0.0949 µM): 23.4%
viability, T/C (second compound 0.003 µM, first compound 0.3 µM): 31.7%
viability, T/C (second compound 0.00949 µM, first compound 0.000949 µM): 24.2%
viability, T/C (second compound 0.00949 µM, first compound 0.003 µM): 23.6%
viability, T/C (second compound 0.00949 µM, first compound 0.00949 µM): 20.4%
viability, T/C (second compound 0.00949 µM, first compound 0.03 µM): 16.6%
viability, T/C (second compound 0.00949 µM, first compound 0.0949 µM): 15.1%
viability, T/C (second compound 0.00949 µM, first compound 0.3 µM): 19.4%
viability, T/C (second compound 0.03 µM, first compound 0.000949 µM): 12.3%
viability, T/C (second compound 0.03 µM, first compound 0.003 µM): 17.6%
viability, T/C (second compound 0.03 µM, first compound 0.00949 µM): 9.79%
viability, T/C (second compound 0.03 µM, first compound 0.03 µM): 7.37%
viability, T/C (second compound 0.03 µM, first compound 0.0949 µM): 8.43%
viability, T/C (second compound 0.03 µM, first compound 0.3 µM): 7.63%
viability, T/C (second compound 0.0949 µM, first compound 0.000949 µM): 8.04%
viability, T/C (second compound 0.0949 µM, first compound 0.003 µM): 7.4%
viability, T/C (second compound 0.0949 µM, first compound 0.00949 µM): 8.22%
viability, T/C (second compound 0.0949 µM, first compound 0.03 µM): 5.8%
viability, T/C (second compound 0.0949 µM, first compound 0.0949 µM): 4.67%
viability, T/C (second compound 0.0949 µM, first compound 0.3 µM): 4.29%
viability, T/C (second compound 0.3 µM, first compound 0.000949 µM): 8.35%
viability, T/C (second compound 0.3 µM, first compound 0.003 µM): 7.65%
viability, T/C (second compound 0.3 µM, first compound 0.00949 µM): 4.3%
viability, T/C (second compound 0.3 µM, first compound 0.03 µM): 4.81%
viability, T/C (second compound 0.3 µM, first compound 0.0949 µM): 3.91%
viability, T/C (second compound 0.3 µM, first compound 0.3 µM): 5.79%

IC50 (curve of compound): 5.85 µM [middle of 4 runs]
Compound: CC1(O)CCCC1n1c(=O)c(C(F)F)cc2cnc(NC3CCN(S(C)(=O)=O)CC3)nc21 (stereo not given)
viability, T/C (compound 0.0316 µM): 92.5% [middle of 4 runs]
viability, T/C (compound 0.1 µM): 76.6% [middle of 4 runs]
viability, T/C (compound 1 µM): 75.7% [middle of 4 runs]
viability, T/C (compound 3.16 µM): 118% [middle of 4 runs]
viability, T/C (compound 10 µM): 14.9% [middle of 4 runs]

pIC50 (second compound 0.000949 µM): < 6.00
pIC50 (second compound 0.003 µM): < 6.00
pIC50 (second compound 0.00949 µM): < 6.00
pIC50 (second compound 0.03 µM): < 6.00
pIC50 (second compound 0.0949 µM): < 6.00
pIC50 (second compound 0.3 µM): < 6.00
Compound: CCN1CCN(Cc2ccc(Nc3ncc(F)c(-c4cc(F)c5nc(C)n(C(C)C)c5c4)n3)nc2)CC1 + CCn1c(-c2cccnc2C(C)OC)c2c3cc(ccc31)N1CCOC(CC(NC(=O)C(C(C)C)N(C)C(=O)C3(F)CCN(C(=O)C#CC(C)(C)N(C)C)CC3)C(=O)N3CCCC(N3)C(=O)OCC(C)(C)C2)C1
viability, T/C (second compound 0.000949 µM, first compound 0.00316 µM): 96.8%
viability, T/C (second compound 0.000949 µM, first compound 0.01 µM): 87.4%
viability, T/C (second compound 0.000949 µM, first compound 0.0316 µM): 61.9%
viability, T/C (second compound 0.000949 µM, first compound 0.1 µM): 80.1%
viability, T/C (second compound 0.000949 µM, first compound 0.316 µM): 87.8%
viability, T/C (second compound 0.000949 µM, first compound 1 µM): 74.5%
viability, T/C (second compound 0.003 µM, first compound 0.00316 µM): 88.6%
viability, T/C (second compound 0.003 µM, first compound 0.01 µM): 89.2%
viability, T/C (second compound 0.003 µM, first compound 0.0316 µM): 81.9%
viability, T/C (second compound 0.003 µM, first compound 0.1 µM): 75.7%
viability, T/C (second compound 0.003 µM, first compound 0.316 µM): 79.1%
viability, T/C (second compound 0.003 µM, first compound 1 µM): 70.7%
viability, T/C (second compound 0.00949 µM, first compound 0.00316 µM): 85.5%
viability, T/C (second compound 0.00949 µM, first compound 0.01 µM): 80.1%
viability, T/C (second compound 0.00949 µM, first compound 0.0316 µM): 74.2%
viability, T/C (second compound 0.00949 µM, first compound 0.1 µM): 79.5%
viability, T/C (second compound 0.00949 µM, first compound 0.316 µM): 69.1%
viability, T/C (second compound 0.00949 µM, first compound 1 µM): 74%
viability, T/C (second compound 0.03 µM, first compound 0.00316 µM): 73.8%
viability, T/C (second compound 0.03 µM, first compound 0.01 µM): 89.7%
viability, T/C (second compound 0.03 µM, first compound 0.0316 µM): 76.9%
viability, T/C (second compound 0.03 µM, first compound 0.1 µM): 75.1%
viability, T/C (second compound 0.03 µM, first compound 0.316 µM): 73.1%
viability, T/C (second compound 0.03 µM, first compound 1 µM): 73.6%
viability, T/C (second compound 0.0949 µM, first compound 0.00316 µM): 66.8%
viability, T/C (second compound 0.0949 µM, first compound 0.01 µM): 73.9%
viability, T/C (second compound 0.0949 µM, first compound 0.0316 µM): 73.7%
viability, T/C (second compound 0.0949 µM, first compound 0.1 µM): 74.6%
viability, T/C (second compound 0.0949 µM, first compound 0.316 µM): 71.6%
viability, T/C (second compound 0.0949 µM, first compound 1 µM): 69.4%
viability, T/C (second compound 0.3 µM, first compound 0.00316 µM): 71.5%
viability, T/C (second compound 0.3 µM, first compound 0.01 µM): 60.8%
viability, T/C (second compound 0.3 µM, first compound 0.0316 µM): 59.9%
viability, T/C (second compound 0.3 µM, first compound 0.1 µM): 58.1%
viability, T/C (second compound 0.3 µM, first compound 0.316 µM): 61.6%
viability, T/C (second compound 0.3 µM, first compound 1 µM): 61.1%

From PubChem BioAssay AID2060900 (Molecular Pharmacology Branch, DTP, NCI, 2025)
